Values of other authors, collected in patent US11865103B2, “Methods of treating disorders associated with glycosylation defective proteins” (CASE WESTERN RESERVE UNIVERSITY, priority 2016, dated 2024).

System: TgAC1; Clrn1^N48K/N48K mouse model
Settings: cited from earlier work

For CC(C)(O)Cn1nc(-c2ccccc2)c2c(Cl)c(-c3ccccc3)nnc21 [BF844], the “Effect on hearing loss” value is given as “mitigate hearing loss”.
